This is an account of results in patent US8686000B2, “Herbicidally active ketosultams and diketopyridines” (Bayer Cropscience AG, priority 2010, dated 2014).

For the first data set, the system named is corn. As to the kind of experiment: Pre-emergence compatibility with crop plants. It counts as in vivo. The following applies: 320 grams per hectare, scored visually after 3 to 4 weeks. An excerpt:
(§1) Pre-emergence Herbicidal Action against Weed Plants and Compatibility with Crop Plants
(§2) Seeds or rhizome sections of mono- and dicotyledonous weed plants are set out in pots of 9 to 13 cm in diameter in sandy loam soil, and are covered with soil. The herbicides, formulated as emulsifiable concentrates or dusting products, are applied to the surface of the covering earth in different doses in the form of aqueous dispersions or suspensions or emulsions, at a water application rate of 300 to 800 I/ha (converted). The pots are then maintained under glass under optimum conditions for the further cultivation of the plants. After the trial plants have stood for 3 to 4 weeks under glass under optimum growth conditions, the effect of the inventive compounds is scored visually.
Take `CCc1cc(Cl)cc(Br)c1-c1c(O)c2scnc2n(CC(F)F)c1=O` [I-a-36]: the damage in corn result was “do not exhibit any damage”. Consider `C#CCn1c(=O)c(-c2c(Cl)cccc2Cl)c(O)c2scnc21` [I-a-44], for which the damage in corn entry is on record as “do not exhibit any damage”. Turning to `O=c1c(-c2c(Cl)ccc(Br)c2Cl)c(O)c2scnc2n1CC(F)F` [I-a-75], the damage in corn result is recorded as “do not exhibit any damage”. In the case of `Cc1ccc(Cl)c(-c2c(O)c3scnc3n(CC(F)F)c2=O)c1Cl` [I-a-89], the damage in corn entry was “do not exhibit any damage”. On the same count and under the same terms, for `Cc1c(Br)ccc(Cl)c1-c1c(O)c2scnc2n(CC(F)F)c1=O` [I-a-94] the value was “do not exhibit any damage”; for `Cc1cc(Br)cc(C)c1-c1c(O)c2scnc2n(CC(F)F)c1=O` [I-a-97], “do not exhibit any damage”.

As to `C=CCn1c(=O)c(-c2c(Br)cc(Cl)cc2CC)c(OC(=O)C(C)(C)C)c2scnc21` [I-b-22], the damage in corn entry is “do not exhibit any damage”. Regarding `CCOC(=O)Oc1c(-c2c(C)cc(Br)cc2CC)c(=O)n(C)c2ncsc12` [I-c-38], the damage in corn entry is listed as “do not exhibit any damage”.

A further data set deals with oilseed rape. As to the kind of experiment: Pre-emergence compatibility with crop plants. The format is in vivo. The following applies: 320 grams per hectare, scored visually after 3 to 4 weeks.
From the text: as §1, §2
In the case of `C=CCn1c(=O)c(-c2c(C)cc(C)cc2C)c(O)c2scnc21` [I-a-2, 4-allyl-7-hydroxy-6-mesityl[1,3]thiazolo[4,5-b]pyridin-5(4H)-one], the “damage in oilseed rape” value is “do not exhibit any damage”. Regarding `C=CCn1c(=O)c(-c2c(Br)cc(Cl)cc2CC)c(O)c2cn(C)nc21` [I-a-28], the “damage in oilseed rape” value is recorded as “do not exhibit any damage”. Turning to `CCc1cc(Cl)cc(Br)c1-c1c(O)c2cn(C)nc2n(CC(F)F)c1=O` [I-a-43], the “damage in oilseed rape” value is listed as “do not exhibit any damage”.

A further data set concerns corn. As to the kind of experiment: Post-emergence compatibility with crop plants. The format is in vivo. Conditions: 320 grams per hectare, scored visually after 3 to 4 weeks. As for the experimental part:
Post-emergence herbicidal action against weed plants and compatibility with crop plants Seeds of monocotyledonous and dicotyledonous weed plants are set out in cardboard pots in sandy loam soil, covered with soil, and cultivated under glass under good growth conditions. Two to three weeks after sowing, the trial plants are treated at the three-leaf stage. The inventive compounds, formulated as wettable powders or as emulsifiable concentrates, are sprayed onto the surface of the green parts of the plants, at a water application rate of 600 to 800 I/ha (converted). After the trial plants have stood for 3 to 4 weeks under glass under optimum growth conditions, the effect of the inventive compounds is scored visually.
Take `CCc1cc(Cl)cc(Br)c1-c1c(O)c2scnc2n(CC(F)F)c1=O` [I-a-36]: the damage in corn result is reported as “do not exhibit any damage”.

For `Cc1cc(C)c(-c2c(O)c3scnc3n(CC(F)F)c2=O)c(C)c1` [I-a-37], the damage in corn result is “do not exhibit any damage”.

Turning to `C#CCn1c(=O)c(-c2c(Cl)cccc2Cl)c(O)c2scnc21` [I-a-44], the damage in corn result is on record as “do not exhibit any damage”. `O=c1c(-c2c(Cl)ccc(C3CC3)c2Cl)c(O)c2scnc2n1CC(F)F` [I-a-83]: the damage in corn entry was “do not exhibit any damage”. On the same count and under the same terms, to `Cc1ccc(Cl)c(-c2c(O)c3scnc3n(CC(F)(F)F)c2=O)c1Cl` [I-a-86] belongs “do not exhibit any damage”; to `Cc1c(Br)ccc(Cl)c1-c1c(O)c2scnc2n(C)c1=O` [I-a-93], “do not exhibit any damage”; to `C[N+](C)(C)C.Cc1cc(C)c(-c2c([O-])c3scnc3n(CC(F)F)c2=O)c(C)c1` [I-g-5], “do not exhibit any damage”. The same measure, in the same setting: to `C#CCOc1c(-c2ccccc2C(F)(F)F)c(=O)n(CC#C)c2ncsc12` [I-h-11] belongs “do not exhibit any damage”.
